Experimental data reported in US7897387B2, “Fungal cell wall synthesis gene” (Eisai R&D Management Co., Ltd., priority 2000, dated 2011).
Converted amounts (≈) assume the structure as drawn.

Experiments:
Type in all cases: cell-based
[1] = system: process that transports GPI-anchored proteins to the cell wall; assay: S. cerevisiae reporter system (cephalosporinase-CWP2 fusion, CW63 strain); details: S. cerevisiae reporter system of Example A2, cell wall fraction
Experimental: Since sensitivity of the enzyme reaction is better with cephalosporinase compared to lysozyme, S. cerevisiae introduced with pRCW63T (S. cerevisiae CW63 strain) was used for the screening of compounds.
(§1) After stationary cultivation in YPD liquid medium at 30° C. for 48 hours, the yeast cell culture was diluted 100 times with YPD liquid medium (3-5×10^5 cells/ml) and 75 μl/well aliquots thereof were inoculated into a V-bottomed 96-well plate containing 25 μl/well of a diluted test sample, and this was subjected to stationary cultivation at 30° C. for 48 hours. After centrifuging the plate, 25 μl of the supernatant was sampled and placed in a flat-bottomed 96-well plate, and this was used as the culture supernatant fraction.
The precipitated cells were suspended, and 75 μl/well aliquots of Zymolyase (Seikagaku Corporation) solution prepared with 2.4 M sorbitol were added and were allowed to react at 30° C. for 1 hour. After centrifuging the plate, 10 μl of the supernatant was sampled and placed in a flat-bottomed 96-well plate, 15 μl of phosphate buffer was added, and this was used as the cell wall fraction.
The cephalosporinase activities in the medium and in the cell wall fraction were measured by adding 200 μM of nitrocefin solution to a pooled sample, and after a certain period of time, stopping the reaction with citric acid buffer, and then measuring the absorbance at 490 nm.
Compounds were evaluated using the S. cerevisiae reporter system of Example A2. The lowest concentration at which cephalosporinase activity in the cell wall fraction became 50% or less compared to that obtained where the compound was not treated, was defined to be the IC50 value.

[2] = system: S. cerevisiae CW63/GWT1 strain; assay: Growth of GWT1-overexpressed S. cerevisiae CW63/GWT1 strain; details: for sensitivity or resistance of the GWT1-overexpressed strain: GWT1-overexpressed strain compared with wild type strain
Experimental: (§2) S. cerevisiae CW63 strain having a cephalosporinase gene as the reporter gene was cultured by the method according to Example A1, TRP1 of the integration vector was cleaved with EcoRV, and then transformation was carried out by the method of Example A1. GWT1-overexpressed strain (S. cerevisiae CW63/GWT1 strain) was obtained by culturing in SD(Trp^−) medium at 30° C. for 3 days.
(§3) Using S. cerevisiae CW63 strain and GWT1 gene introduced S. cerevisiae CW63/GWT1, activity of the aforementioned compound (Ia) was examined by a method according to the method described in Example A2.

[3] = system: mutant GWT1 gene (R1 or R5); assay: Growth of GWT1-disrupted S. cerevisiae clone harbouring mutant GWT1 gene (R1 or R5) plasmid; details: chromosomal GWT1 disrupted, pRS316GWT1-R1 or pRS316GWT1-R5, medium containing the compound
Experimental: S. cerevisiae LW63 strain having a lysozyme gene as the reporter gene due to introduction of pRLW63T was treated with ethyl methanesulfonate, then by culturing in a SD medium containing the aforementioned compound of the formula (Ia) at concentrations of 1.56, 3.13, and 6.25 μg/ml at 37° C. for 3 days, five resistant mutant strains (R1 to R5) were obtained. […] To confirm whether or not these two mutant strains have mutations on the GWT1 gene, genomic DNAs were extracted from both mutant strains, and the nucleotide sequence of the GWT1 gene portion was determined. As a result, in the R1 mutant strain, guanine at position 1213 had been mutated to adenine. Furthermore, in the R5 mutant strain, guanine at position 418 had been mutated to adenine. Therefore, it was elucidated that in the R1 mutant strain, the 405th amino acid, […], and in the R5 mutant strain, the 140th amino acid, glycine, had been changed to arginine.
Next, to confirm whether or not these mutations are the cause of the acquisition of the specific resistant characteristic to the aforementioned compound of the formula (Ia), the mutant GWT1 gene (R1 or R5) was isolated using the genomic DNAs derived from both mutant strains as templates and the primers of SEQ ID NOs: 60 and 61. […]

C. albicans cell wall = assay: Transmission electron microscopy of the C. albicans cell wall; details: C. albicans cultured in the presence of the compound, compared to untreated cells
Experimental: C. albicans which was cultured in Sabouraud Dextrose Liquid Medium (5 ml) containing various concentrations of the test agent at 30° C. for 48 hours, then centrifuged, and collected, was immobilized by potassium permanganate immobilization method, and the transmission electron microscope image thereof was observed.
This flocculent fibrous structure was not influenced by other existing antifungal agents.

GWT1-deficient strain = assay: Growth of GWT1-deficient S. cerevisiae strain
Experimental: His5 cassette containing the GWT1 sequence on both ends was amplified by PCR using the his5 gene of S. pombe (Longtine M S et al, Yeast, 14: 953-961, 1998) as template and SEQ ID NO:25 and SEQ ID NO:26 as primers.
S. cerevisiae G2-10 was cultured and the cells were collected by the method according to Example A1, and the abovementioned PCR product was transformed by the method according to Example A1. A GWT1-deficient strain was obtained by cultivation in SD(His^−) medium at 30° C. for 5 to 7 days.

C. albicans = assay: Growth of C. albicans in the presence of the compound
[4] = system: process that transports GPI-anchored proteins to the cell wall; assay: Reporter system in S. cerevisiae overexpressing the GWT1 gene product (CW63/GWT1 strain); details: 0.39 to 1.56 μg/ml, FIG. 6
Experimental: as §2, §3

[5] = system: S. cerevisiae CW63 strain; assay: Fungal growth of S. cerevisiae CW63 strain by visual observation; details: FIG. 2
Experimental: as §1
Furthermore, fungal growth in the presence of the test sample was determined by visual observation.

[6] = system: adhesion of C. albicans to animal cells; assay: Adhesion of C. albicans to animal cells (IEC-18); details: 1.56 μg/ml, immobilized IEC-18 cells, FIG. 3
Experimental: Three-milliliter aliquots of IEC-18 cells (1×10^5 cells/ml in D-MEM medium (Nissui Pharmaceutical) containing 10% fetal calf serum and 2 mM glutamine) were placed in each well of a 6-well multi-well plate. The plate was incubated in a carbon dioxide gas incubator at 37° C. for 3 days, the culture supernatant was removed, and ethanol immobilization was carried out.
C. albicans cultured in Sabouraud Dextrose Liquid Medium containing various concentrations of the test sample at 30° C. for 48 hours was adjusted to 4×10^2 cells/ml, and 1 ml was inoculated into each well of the plate in which the immobilized IEC-18 cells were cultured. After cultivation at 30° C. for 1 hour, the culture supernatant was removed, washed with PBS, and then 2 ml of Sabouraud Dextrose Agar Medium (Difco) was superposed. After cultivation at 30° C. overnight, the number of colonies (CFU) that had grown was counted and the adhesion rate was calculated.

Compound	IC50 (lowest concentration at which cephalosporinase activity in the cell wall fraction became 50% or less compared to no compound) [1]	sensitivity or resistance of the GWT1-overexpressed strain [2]	other results
CCCCc1ccc(Cc2ncccc2OC)cc1 [Example B231, 2-(4-Butylbenzyl)-3-methoxypyridine]	0.78 µg/mL (≈ 3.05 µM)		
C[C@@H]1[C@H](O)[C@@H](C)/C=C/C=C/C=C/C=C/C=C/C=C/C=C/[C@H](O[C@@H]2O[C@H](C)[C@@H](O)[C@H](N)[C@@H]2O)C[C@@H]2O[C@](O)(C[C@@H](O)C[C@@H](O)[C@H](O)CC[C@@H](O)C[C@@H](O)CC(=O)O[C@H]1C)C[C@H](O)[C@H]2C(=O)O [amphotericin B]		sensitive	
CCCCc1ccc(Cc2nccc3sccc23)cc1 [Example B187, 4-(4-Butylbenzyl)thieno[3,2-c]pyridine]	0.78 µg/mL (≈ 2.77 µM)		
CCCCc1ccc(Cc2nccc3ccccc23)cc1 [Example B2, 1-(4-Butylbenzyl)isoquinoline]	0.39 µg/mL (≈ 1.42 µM)		
CCCCc1ccc(Cc2nccc3ccsc23)cc1 [Example B195, 7-(4-Butylbenzyl)thieno[2,3-c]pyridine]	0.39 µg/mL (≈ 1.39 µM)		
CCCCc1ccc(Cc2nccc(OC)c2OC)cc1 [Example B242, 2-(4-Butylbenzyl)-3,4-dimethoxypyridine]	0.78 µg/mL (≈ 2.73 µM)		
CCCCc1ccc(Cc2nccc3ccccc23)c(O)c1 [Example B85, 5-Butyl-2-(1-isoquinolylmethyl)phenol]	0.20 µg/mL (≈ 0.686 µM)		
C[C@@H]1C[C@@H]([C@H](O)CC2CC(=O)NC(=O)C2)C(=O)[C@@H](C)C1 [cycloheximide]		sensitive	
CCCCc1ccc(Cc2nccc3ccccc23)cc1 [compound (Ia), 1-(4-butylbenzyl)isoquinoline]		showing resistance	resistance of clone expressing a single copy of mutant GWT1 gene (R1 or R5) [3]: resistance to the aforementioned compound of the formula (Ia) was seen; flocculent fibrous structure of the outermost layer of the cell having high electron density (C. albicans cell wall): disappeared leaving a small amount of the layer with high electron density; influence on growth of the GWT1-deficient strain (GWT1-deficient strain): growth is not influenced; growth inhibition of C. albicans (C. albicans; 1.56 μg/ml): growth inhibition cannot be observed; growth of C. albicans (C. albicans; no concentration stated): inhibits the growth; influence on cephalosporinase activity in culture supernatant and cell wall fractions [4]: no influence was observed; concentration at which growth inhibition was observed [5]: ≥ 3.13 µg/mL; adhesion of C. albicans to animal cells [6]: inhibited to about a half; growth inhibition ([2]; CW63/GWT1 strain, >3.13 μg/ml, FIG. 6): growth inhibition was not observed
CCCCNC(=O)n1c(NC(=O)OC)nc2ccccc21 [benomyl]		sensitive	
CC(=O)NCC#Cc1ccc(Cc2nccc3ccccc23)cc1 [Example B60, N-{3-[4-(1-Isoquinolylmethyl)phenyl]-2-propynyl}acetamide]	6.25 µg/mL (≈ 19.9 µM)		
CC(=O)N(C)CCCc1ccc(Cc2nccc3ccccc23)cc1 [Example B73, N-{3-[4-(1-isoquinolylmethyl)phenyl]propyl}-N1-methylacetamide]	50 µg/mL (≈ 150 µM)		
